The subject of test [1] is Eμ-Mycp19^Arf−/− mouse lymphoma cells. The test is described as follows: Drug treatment and FACS viability (propidium iodide) to determine LD80-90. It counts as cell-based. The following applies: for IC (80-90): Mus musculus, read-out: Concentration used (LD80-90).
Test [2] concerns γ-H2AX. The test is described as follows: DNA damage response by western blot (γ-H2AX phosphorylation) in TopoI and TopoII knockdown cells. It counts as cell-based. (In general: A western blot detects proteins with antibodies after separation by electrophoresis.)
For test [3], the system named is cells expressing shTopoI or shTopoII. Put plainly: shTopoI and shTopoII response signatures. It counts as cell-based, mouse. The following applies: FIG. 3d.
In test [4] the test system is shTopoII, shTopoI or vector control-expressing cells. The test is described as follows: Long-term survival assay, surviving cells 12 days after drug treatment. Type of test: cell-based. An excerpt:
Identification and functional characterization of ill-defined genotoxic drugs. […] (3b) The shATM-Chk2-p53 response signature for apigenin (APG) and NSC3852 (NSC). (3c) The branching pattern for the 18 reference compounds plus APG and NSC. APG clusters with the TopoII poisons Dox and VP-16, whereas NSC clusters with the Topol poison CPT. (3d) A comparison of the shTopoI and shTopoII response signatures for APG and NSC3852 with response signatures derived from established Topol (CPT and CPT11) and TopoII poisons (Dox, Mito and VP-16). […] In each case, one million cells were plated before treatment. Data shown are mean±s.e.m. from three Independent experiments.

Test [5] relates to lymphoma cells expressing shATM, shChk2 or shp53. Put plainly: shATM-Chk2-p53 resistance signature. Type of test: cell-based, mouse. On the procedure:
(3d) A comparison of the shTopoI and shTopoII response signatures for APG and NSC3852 with response signatures derived from established Topol (CPT and CPT11) and TopoII poisons (Dox, Mito and VP-16). […] In each case, one million cells were plated before treatment.
Eμ-Mycp19^Arf−/− cells were counted and seeded at 1 million cells per ml in 48-well plates and treated with various concentrations of drugs. To approximate therapeutic situations in which drug dose decreases over time, half of the volume from each experiment was removed and replenished with fresh medium every 24 h. Cells were analyzed by fluorescence-activated cell sorting (FACS), with propidium iodide as a viability marker. LD80-90 of drugs are defined as concentrations at which the lowest viability reading out of three FACS time points (24, 48 and 72 h) is between 10% and 20%. After drug dose was determined, Eμ-Mycp19^Arf−/− cells were infected with retroviruses encoding shRNAs targeting particular genes. Individual infected cell populations were counted and seeded at 1 million cells per ml in 48-well plates and treated with drugs using the aforementioned protocol. At 72 h, treated and untreated cells were analyzed by flow cytometry. GFP percentages of live (PI-negative) cells were recorded and used to calculate relative resistance index.
To compare the relative level of chemoresistance and sensitization conferred by each gene knockdown, the concept of RI (see definition above) was introduced, to more accurately analyze the GFP competition results. The value of RI is defined as X. The biological meaning of this factor X is that in a mixture of uninfected and infected (knockdown) cells, the infected (knockdown) cells will be X-fold as likely to survive drug treatment when compared to uninfected cells. By this definition of X, if one out of n uninfected cells survives a drug treatment, then X our of n infected cells should survive. If the total number of uninfected and infected cells are defined as T and the GFP percentage of untreated population are defined as G1, then the number of surviving, uninfected cells (un) can be defined as n−un=T×(1−G1)×1/n, and the number of surviving, infected cells (in) can be defined as n−in=Tx G1×X/n. […] From this equation, it can be derived that X=(G2−G1×G2)/(G1−G1×G2). This equation was used in the studies to compute RI values.

The subject of test [6] is Eμ-Mycp19^Arf−/− lymphoma cells expressing shRNAs targeting the Bcl2 family, p53 and its activating kinases. Put plainly: 29-shRNA GFP competition assay, resistance index (RI), clustering and K-nearest-neighbors. Type of test: cell-based, mouse.
Test [7] deals with Bim. Put plainly: Bim expression level by western blot. Type of test: cell-based, mouse. The settings on record: lymphoma cells treated for 6 or 9 hours.
Description: 9b, Lymphoma cells were treated with SAHA or DAC for 6 or 9 hours. Bim expression level was analyzed by western blot.
Setting [8] is: concentration at which 80-90% of uninfected lymphoma cells were killed, lowest viability of 24, 48 and 72 h between 10% and 20%.
[9] abbreviates: suppression of ATM, Chk2 and p53.
Where [10] appears, read: shRNA targeting Bim (Bim-dependence).
Setting [11] is: shRNA targeting p53 (p53-independence).

Where two headings read alike, the source gives them in different places.

For `O=c1cc(-c2ccc(O)cc2)oc2cc(O)cc(O)c12` [Apigenin], the IC (80-90) in test [1] (setting [8]) came out at 0.1 µM. Moreover, the “induction of DNA damage” value in test [2] (TopoII-deficient cells) is recorded as “failed to induce DNA damage”. Moreover, the “shTopoI and shTopoII resistance and sensitivity pattern” value in test [3] was “shTopoII resistance and shTopoI sensitivity”. Further, the long-term survival entry in test [4] (TopoII deficiency) was “significant protection”. Also, the shATM-Chk2-p53 resistance signature result in test [5] (setting [9]) is “strong shATM-Chk2-p53 resistance signature”.

On to `CC[C@@]1(O)C(=O)OCc2c1cc1n(c2=O)Cc2cc3ccccc3nc2-1` [Camptothecin], for which the IC (80-90) in test [1] worked out at 0.0004 µM. Further, the shATM-Chk2-p53 resistance signature entry in test [5] (setting [9]) was “significant resistance”.

With `O=C(O)CCCc1ccc(N(CCCl)CCCl)cc1` [Chlorambucil], in test [1], the IC (80-90) worked out at 6.6 µM. In test [5] (setting [9]), the shATM-Chk2-p53 resistance signature result is recorded as “significant resistance”.

As for `N.N.[Cl][Pt][Cl]` [Cisplatin], in test [1] (setting [8]), the “Concentration used (LD80-90)” value was 3.3 µM. Besides, the shATM-Chk2-p53 resistance signature entry in test [5] (setting [9]) is reported as “significant resistance”.

On to `Nc1ncn([C@H]2C[C@H](O)[C@@H](CO)O2)c(=O)n1` [Decitabine], for which the IC (80-90) in test [1] (setting [8]) came out at 0.6 µM. Further, the values for the log2RI result in test [6] (setting [10]) and in test [6] (setting [11]) were “≈ 2” and “≈ 0”, respectively.

For `COc1cccc2c1C(=O)c1c(O)c3c(c(O)c1C2=O)C[C@@](O)(C(=O)CO)C[C@@H]3O[C@H]1C[C@H](N)[C@H](O)[C@H](C)O1` [Doxorubicin], the IC (80-90) in test [1] (setting [8]) is 0.0162 µM. In test [5], the shATM-Chk2-p53 resistance signature result is recorded as “significant resistance”.

For `O=Nc1ccc(O)c2ncccc12` [NSC3852], the “Concentration used (LD80-90)” value in test [1] (setting [8]) turned out to be 1.7 µM. Moreover, in test [2] (TopoI-deficient cells), the “induction of DNA damage” value is “failed to induce DNA damage”. Also, the “shTopoI and shTopoII resistance and sensitivity pattern” value in test [3] is “characteristic pattern of resistance, similar to established TopoI poisons camptothecin and irinotecan”. Moreover, the long-term survival entry in test [4] (TopoI deficiency) is listed as “significantly protected”. Further, in test [5] (setting [9]), the shATM-Chk2-p53 resistance signature entry is “strong shATM-Chk2-p53 resistance signature”.

With `O=C(CCCCCCC(=O)Nc1ccccc1)NO` [Vorinostat, suberoylanilide hydroxamic acid], the “levels of the proapoptotic BH3-only protein Bim” value in test [7] is reported as “increase”. For the same molecule, the IC (80-90) in test [1] (setting [8]) was 0.2 µM. Also, the log2RI result is reported as “≈ 2” in test [6] (setting [10]) and “≈ 0” in test [6] (setting [11]). Further, the “effect of suppression of the Bim transcription regulator Chop on drug response” value in test [6] (shRNA targeting Chop, FIG. 1d) is recorded as “resistance”.

The record behind these values is patent US9683231B2, “RNAi-based method of drug screening and characterization” (Massachusetts Institute of Technology, priority 2010, dated 2017).
